Residues, ends and D or L forms follow the SMILES beside them.
Experiments:
Type in all cases: cell-based
[1] = test system: Staphylococcus aureus ATCC 25923
Method: (§1) To compare the antimicrobial activity of the peptide produced by the method of Example 1, the inventors of the present invention measured the growth minimum inhibitory concentration (MIC), which is minimum concentration of the peptide showing no dissociation of bacterial cells.
(§2) Specifically, the bacterial strain described in the following Table 2 was purchased and cultured in each medium to a mid-log phase. Then, after dilution to bacterial cell concentration of 2×10^5 cells/100 μl, the cells were inoculated to a microtiter plate (NUNC, USA). Thereafter, myxinidin 1, myxinidin 2, or myxinidin 3 peptides which have been synthesized in Example 1 above was diluted, 1/2 times for each, with BSA (bovine serum albumin) solution in a 96-well plate. After adding the cells to a plate, the cells were cultured for 12 hours at 37° C. By using a microtiter plate reader (Merck Elisa reader, Germany), the absorbance was measured at a wavelength of 600 nm to determine the MIC value of each bacterial strain. As a control group, myxinidin as a mother peptide was subjected to the same processes as above and the MIC value of each bacterial strain was obtained.

[2] = test system: Salmonella typhimurium CCARM 8009
Method: as §1, §2

[3] = test system: Pseudomonas aeruginosa ATCC 27853
Method: as §1, §2

[4] = test system: Salmonella typhimurium CCARM 8013
Method: as §1, §2

[5] = test system: Salmonella typhimurium KCTC 1926
Method: as §1, §2

[6] = test system: Pseudomonas aeruginosa Isolated strain 3592
Method: as §1, §2

[7] = test system: Escherichia coli ATCC 25922
Method: as §1, §2

[8] = test system: Staphylococcus aureus CCARM 3709
Method: as §1, §2

[9] = test system: Listeria monocytogenes KCTC 3710
Method: as §1, §2

[10] = test system: Escherichia coli CCARM 1229
Method: as §1, §2

[11] = test system: Staphylococcus aureus CCARM 3114
Method: as §1, §2

[12] = test system: Pseudomonas aeruginosa Isolated strain 5018
Method: as §1, §2

[13] = test system: Escherichia coli CCARM 1238
Method: as §1, §2

in vitro = settings: human, NHK cells (normal human keratinocytes)
Method: To determine the cytotoxicity of the peptide produced by the method of Example 1 in normal cell line, toxicity was measured by using NHK cells (Normal Human Keratinocyte cells).
Specifically, NHK cells which have been cultured in Epilife medium with 60 μM calcium (Gibco, USA) containing 10% HKGS (Human Keratinocyte Growth Supplement) (Gibco, USA) were aliquoted in a 96-well plate to have 1×10^4 cells per well. After culturing them for 24 hours, the cells were subjected to a treatment with myxinidin, myxinidin 1, myxinidin 2, or myxinidin 3 peptide, each at concentration of 3.125, 6.25, 12.5, or 25.0 μM/well, followed by reaction for 24 hours in a 5% CO2 incubator. After the culture, a reaction solution containing 5 mg/ml MTT (Thiazolyl Blue Tetrazolium Bromide) dissolved in physiological saline (PBS) was added in an amount of 20 μl to each well and allowed to react for 4 hours. After that, the supernatant was removed, and, by dissolving MTT crystals that are formed by adding 200 μl of DMSO, the absorbance at 560 nm was measured to determine the cell survival ability.

For `CC[C@H](C)[C@H](NC(=O)CN)C(=O)N[C@@H](Cc1c[nH]cn1)C(=O)N[C@@H](CC(=O)O)C(=O)N[C@H](C(=O)N[C@@H](CC(C)C)C(=O)N[C@@H](CCCCN)C(=O)N[C@@H](Cc1ccc(O)cc1)C(=O)NCC(=O)N[C@@H](CCCCN)C(=O)N1CCC[C@H]1C(=O)N[C@@H](CO)C(N)=O)[C@@H](C)CC` [Myxinidin, GIHDILKYGKPS-NH2] (H-GIHDILKYGKPS-NH2), the “Minimum growth inhibitory concentration” value [1] was greater than 32 µM, the “Minimum growth inhibitory concentration” value [2] was greater than 32 µM and the “Minimum growth inhibitory concentration” value [3] was greater than 32 µM. For the same molecule, the “Minimum growth inhibitory concentration” value [4] was greater than 32 µM, the “Minimum growth inhibitory concentration” value [5] was greater than 32 µM and the “Minimum growth inhibitory concentration” value [6] was greater than 32 µM. The “Minimum growth inhibitory concentration” value [7] was greater than 32 µM, the “Minimum growth inhibitory concentration” value [8] was greater than 32 µM and the “Minimum growth inhibitory concentration” value [9] was greater than 32 µM. For the same molecule, the “Minimum growth inhibitory concentration” value [10] was greater than 32 µM, the “Minimum growth inhibitory concentration” value [11] was greater than 32 µM and the “Minimum growth inhibitory concentration” value [12] was greater than 32 µM. For the same molecule, the “Minimum growth inhibitory concentration” value [13] was greater than 32 µM, the viability at 24 h, 3.125 µM (in vitro) was 100% and the viability at 24 h, 6.25 µM (in vitro) was 98%. The viability at 24 h, 12.5 µM (in vitro) was 98% and the viability at 24 h, 25 µM (in vitro) was 95%.

Reference: US10919935B2, “Antimicrobial peptide derived from myxinidin peptide and uses thereof” (INDUSTRY-ACADEMIC COOPERATION FOUNDATION, CHOSUN UNIVERSITY, priority 2015, dated 2021)
